The viability is a read-out of living cells in per cent, often relative to untreated cells.

The data set in a line: in vitro. Particulars: human, hek293t cells.
`Cc1cc(CN(Cc2cnn(C)c2)C(=O)CCl)ccc1Cl` [5-G12, 2-chloro-N-[(4-chloro-3-methylphenyl)methyl]-N-[(1-methyl-1H-pyrazol-4-yl)methyl]acetamide]: the viability at 48 h, 25 µM was -0.0746%.
As for `CC(C)c1cccc(C(C)C)c1NC(=O)CCl` [5-G13, N-[2,6-bis(propan-2-yl)phenyl]-2-chloroacetamide], the figure is 37.8%; as for `Cc1cc(CN(Cc2ccn(C)n2)C(=O)CCl)ccc1F` [5-G14, 2-chloro-N-[(4-fluoro-3-methylphenyl)methyl]-N-[(1-methyl-1H-pyrazol-3-yl)methyl]acetamide], 0.658%.
For `O=C(CCl)Nc1nc2c(s1)CCCC2` [5-G15, 2-chloro-N-(4,5,6,7-tetrahydro-1,3-benzothiazol-2-yl)acetamide], the viability at 48 h, 25 µM was 1.2%.
Take `CCn1cc(CN(C(=O)CCl)[C@H]2CC[C@H](C)CC2)cn1` [5-G16, 2-chloro-N-[(1-ethyl-1H-pyrazol-4-yl)methyl]-N-[(1r,4r)-4-methylcyclohexyl]acetamide]: the viability at 48 h, 25 µM stood at 0.893%.
To `Cc1c(NC(=O)CCl)c(=O)n(-c2ccccc2)n1C` [5-G17, 2-chloro-N-(1,5-dimethyl-3-oxo-2-phenyl-2,3-dihydro-1H-pyrazol-4-yl)acetamide] belongs 42.7%; to `O=C(CCl)N1CCCCC1c1nc(-c2ccccn2)cs1` (centres unmarked) [5-G18, 2-chloro-1-{2-[4-(pyridin-2-yl)-1,3-thiazol-2-yl]piperidin-1-yl}ethan-1-one], 0.612%.
To `O=C(CCl)Nc1cc(Cl)ccc1Oc1ccccc1` [5-G19, 2-chloro-N-(5-chloro-2-phenoxyphenyl)acetamide] belongs 0.676%.
To `O=C(CCl)N1CC(Cc2ccc(F)cc2F)C1` [5-G20, 2-chloro-1-{3-[(2,4-difluorophenyl)methyl]azetidin-1-yl}ethan-1-one] belongs 0.867%.
Consider `CC(Cl)C(=O)Nc1ccc(Cl)c(S(=O)(=O)N(C)C)c1` (centres unmarked) [5-G21, 2-chloro-N-[4-chloro-3-(dimethylsulfamoyl)phenyl]propanamide], for which the viability at 48 h, 25 µM was found to be 78.5%.
For the molecule `O=C(CCl)NCC(=O)Nc1nccs1` [5-G22, 2-chloro-N-{[(1,3-thiazol-2-yl)carbamoyl]methyl}acetamide], the viability at 48 h, 25 µM stood at 3.47%.
For `CC(Oc1cccc(F)c1F)C(=O)N1CCN(C(=O)CCl)CC1` (centres unmarked) [5-H03, 1-[4-(2-chloroacetyl)piperazin-1-yl]-2-(2,3-difluorophenoxy)propan-1-one], the viability at 48 h, 25 µM is 1.67%.
As for `CC(Cl)C(=O)N1CCc2ccccc21` (centres unmarked) [5-H04, 2-chloro-1-(2,3-dihydro-1H-indol-1-yl)propan-1-one], the figure is 114%; as for `CC1=C(c2ccco2)CN(C(=O)CCl)CC1` [5-H05, 2-chloro-1-[5-(furan-2-yl)-4-methyl-1,2,3,6-tetrahydropyridin-1-yl]ethan-1-one], 69.1%.
As to `CN(C(=O)CCl)C(c1ccccc1)c1ccccc1` [5-H06, 2-chloro-N-(diphenylmethyl)-N-methylacetamide], the viability at 48 h, 25 µM is 0.0655%.
To `CC1CSc2ccccc2N(C(=O)CCl)C1` (centres unmarked) [5-H07, 2-chloro-1-(3-methyl-2,3,4,5-tetrahydro-1,5-benzothiazepin-5-yl)ethan-1-one] belongs 0.825%.
Turning to `CCN(Cc1ccc(C#N)cc1F)C(=O)CCl` [5-H08, 2-chloro-N-[(4-cyano-2-fluorophenyl)methyl]-N-ethylacetamide], the viability at 48 h, 25 µM came to 0.591%.
In the case of `CC(Cl)C(=O)N1CCOCC1` (centres unmarked) [5-H09, 2-chloro-1-(morpholin-4-yl)propan-1-one], the viability at 48 h, 25 µM is 103%.
As for `CC(Cl)C(=O)Nc1ccc2ccccc2c1` (centres unmarked) [5-H10, 2-chloro-N-(naphthalen-2-yl)propanamide], the figure is 90.7%; as for `CCCN(CC1CC1)C(=O)CCl` [5-H11, 2-chloro-N-(cyclopropylmethyl)-N-propylacetamide], 1.45%; as for `COc1ccc(CCNC(=O)CCl)cc1` [5-H12, 2-chloro-N-[2-(4-methoxyphenyl)ethyl]acetamide], 0.726%.
`COc1ccc(N(C(=O)CCl)C2C=CS(=O)(=O)C2)cc1` (centres unmarked) [5-H14, 2-chloro-N-(1,1-dioxo-2,3-dihydro-1lambda6-thiophen-3-yl)-N-(4-methoxyphenyl)acetamide]: the viability at 48 h, 25 µM came to 1.1%.
As for `O=C(CCl)NC1CCCCCC1` [5-H16, 2-chloro-N-cycloheptylacetamide], the figure is 17.7%; as for `Cc1csc(CN2CCN(C(=O)C(C)Cl)CC2)n1` (centres unmarked) [5-H17, 2-chloro-1-{4-[(4-methyl-1,3-thiazol-2-yl)methyl]piperazin-1-yl}propan-1-one], 87.4%; as for `CC(Cl)C(=O)N1N=C(c2ccc(Cl)cc2)CC1c1ccco1` (centres unmarked) [5-H18, 2-chloro-1-[3-(4-chlorophenyl)-5-(furan-2-yl)-4,5-dihydro-1H-pyrazol-1-yl]propan-1-one], 78.1%.
`COc1ccccc1C(NC(=O)C(C)Cl)c1ccco1` (centres unmarked) [5-H19, 2-chloro-N-[(furan-2-yl)(2-methoxyphenyl)methyl]propanamide]: the viability at 48 h, 25 µM was 120%.
Consider `CC(C)(C)N(Cc1ccccc1)C(=O)CCl` [5-H20, N-benzyl-N-tert-butyl-2-chloroacetamide], for which the viability at 48 h, 25 µM stood at 1.81%.
`CC(=O)N1CCC(N(Cc2cncs2)C(=O)C(C)Cl)CC1` (centres unmarked) [5-H21, N-(1-acetylpiperidin-4-yl)-2-chloro-N-[(1,3-thiazol-5-yl)methyl]propanamide]: the viability at 48 h, 25 µM was 119%.
As for `CC(Cl)C(=O)Nc1cccc(Cl)c1` (centres unmarked) [5-H22, 2-chloro-N-(3-chlorophenyl)propanamide], the figure is 78%.
To `CCN(CC)C(=O)c1cccc(NC(=O)CCl)c1` [5-I03, 3-(2-chloroacetamido)-N,N-diethylbenzamide] belongs 0.175%; to `O=C(CCl)Nc1cccc(OCc2ccccc2)c1` [5-I04, N-[3-(benzyloxy)phenyl]-2-chloroacetamide], 0.885%.
In the case of `CCOC(=O)C1=C(C)NC(=O)N(C(=O)CCl)C1c1ccccc1` (centres unmarked) [5-I05, ethyl 3-(2-chloroacetyl)-6-methyl-2-oxo-4-phenyl-1,2,3,4-tetrahydropyrimidine-5-carboxylate], the viability at 48 h, 25 µM stood at 44.7%.
To `O=C(CCl)N(Cc1ccccc1)Cc1ccc(F)cc1` [5-I06, N-benzyl-2-chloro-N-[(4-fluorophenyl)methyl]acetamide] belongs 0.621%.
As for `CC(Cc1c[nH]c2cc(F)c(F)cc12)NC(=O)CCl` (centres unmarked) [5-I07, 2-chloro-N-[1-(5,6-difluoro-1H-indol-3-yl)propan-2-yl]acetamide], the viability at 48 h, 25 µM came to 0.657%.
Regarding `CNC(=O)c1ccn(C2CCCN(C(=O)CCl)C2)n1` (centres unmarked) [5-I08, 1-[1-(2-chloroacetyl)piperidin-3-yl]-N-methyl-1H-pyrazole-3-carboxamide], the viability at 48 h, 25 µM was found to be 1.61%.
To `Cc1cc(NS(=O)(=O)c2ccc(NC(=O)CCl)cc2)nc(C)n1` [5-I09, 2-chloro-N-{4-[(2,6-dimethylpyrimidin-4-yl)sulfamoyl]phenyl}acetamide] belongs 1.31%; to `CC(c1ccccc1F)N1CCCC(NC(=O)CCl)C1=O` (centres unmarked) [5-I10, 2-chloro-N-{1-[1-(2-fluorophenyl)ethyl]-2-oxopiperidin-3-yl}acetamide], 80.5%.
For `Cc1cc(CN(C(=O)CCl)c2cn(C)nn2)ccc1Cl` [5-I12, 2-chloro-N-[(4-chloro-3-methylphenyl)methyl]-N-(1-methyl-1H-1,2,3-triazol-4-yl)acetamide], the viability at 48 h, 25 µM turned out to be 13.7%.
On to `CN(Cc1ccc(-c2ccc(Cl)cc2)o1)C(=O)CCl` [5-I13, 2-chloro-N-{[5-(4-chlorophenyl)furan-2-yl]methyl}-N-methylacetamide], for which the viability at 48 h, 25 µM was found to be 16.8%.
For `O=C(CCl)N(Cc1ccnn1C1CCC1)C1CC=CCC1` (centres unmarked) [5-I14, 2-chloro-N-[(1-cyclobutyl-1H-pyrazol-5-yl)methyl]-N-(cyclohex-3-en-1-yl)acetamide], the viability at 48 h, 25 µM came to 0.326%.
As for `CC(Cl)C(=O)Nc1ccc([N+](=O)[O-])cc1C#N` (centres unmarked) [5-I15, 2-chloro-N-(2-cyano-4-nitrophenyl)propanamide], the figure is 78.6%.
Regarding `O=C(CCl)NC1CN(S(=O)(=O)c2ccc3c(c2)OCCO3)C1` [5-I16, 2-chloro-N-[1-(2,3-dihydro-1,4-benzodioxine-6-sulfonyl)azetidin-3-yl]acetamide], the viability at 48 h, 25 µM is 2.6%.
For `Cc1ccc(C2=NN(C(=O)CCl)C(c3cccs3)C2)o1` (centres unmarked) [5-I17, 2-chloro-1-[3-(5-methylfuran-2-yl)-5-(thiophen-2-yl)-4,5-dihydro-1H-pyrazol-1-yl]ethan-1-one], the viability at 48 h, 25 µM amounted to 0.348%.
To `O=C(CCl)N1CCCCc2ccc([N+](=O)[O-])cc21` [5-I18, 2-chloro-1-(8-nitro-2,3,4,5-tetrahydro-1H-1-benzazepin-1-yl)ethan-1-one] belongs 1.56%.
As for `CCN(C(=O)C(C)Cl)C1CCCCC1` (centres unmarked) [5-I19, 2-chloro-N-cyclohexyl-N-ethylpropanamide], the figure is 134%.
To `COc1ccc(N(C(=O)CCl)C2CCS(=O)(=O)C2)cc1` (centres unmarked) [5-I20, 2-chloro-N-(1,1-dioxo-1lambda6-thiolan-3-yl)-N-(4-methoxyphenyl)acetamide] belongs 2.54%; to `CC(Cl)C(=O)NC(=O)Nc1ccccc1` (centres unmarked) [5-I21, 3-(2-chloropropanoyl)-1-phenylurea], 92.7%; to `N#Cc1cccc(NC2CCN(C(=O)CCl)C2)c1` (centres unmarked) [5-I22, 3-{[1-(2-chloroacetyl)pyrrolidin-3-yl]amino}benzonitrile], 2.25%.
As to `CN(C(=O)c1ccccc1)C1CC2CCC(C1)N2C(=O)CCl` (centres unmarked) [5-J03, N-[8-(2-chloroacetyl)-8-azabicyclo[3.2.1]octan-3-yl]-N-methylbenzamide], the viability at 48 h, 25 µM came out at 1.62%.
For the molecule `CC(Cl)C(=O)N(C)C1CCCCC1` (centres unmarked) [5-J04, 2-chloro-N-cyclohexyl-N-methylpropanamide], the viability at 48 h, 25 µM came out at 94.1%.

These data come from article PMC11995724, “Antibiotic target discovery by integrated phenotypic and activity-based profiling of electrophilic fragments” (Cell chemical biology, 2025).
